Measured values from ChEMBL document CHEMBL1155873, “Sesquiterpenes from the Hainan Sponge Dysidea septosa” (J Nat Prod, 2008).

Target: T1, Tyrosine-protein phosphatase non-receptor type 1 (Homo sapiens, UniProt P18031)
T1 sequence (P18031 whole entry): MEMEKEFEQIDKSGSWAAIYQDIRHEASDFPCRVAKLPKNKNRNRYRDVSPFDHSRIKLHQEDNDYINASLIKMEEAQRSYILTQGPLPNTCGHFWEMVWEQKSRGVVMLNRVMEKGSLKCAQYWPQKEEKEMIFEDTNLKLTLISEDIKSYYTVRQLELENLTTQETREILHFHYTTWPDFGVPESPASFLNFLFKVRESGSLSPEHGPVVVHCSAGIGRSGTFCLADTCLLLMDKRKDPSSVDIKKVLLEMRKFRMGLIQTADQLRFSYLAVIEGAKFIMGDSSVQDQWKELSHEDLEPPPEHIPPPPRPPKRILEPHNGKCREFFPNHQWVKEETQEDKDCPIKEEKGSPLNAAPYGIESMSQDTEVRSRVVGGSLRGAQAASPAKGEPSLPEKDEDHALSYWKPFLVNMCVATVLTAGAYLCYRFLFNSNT
Test: Inhibition of human recombinant PTP1B catalytic domain

| IC50 [µM] | Compound |
| --- | --- |
| 8.78 | CC1=C[C@@H]2C[C@H](C)[C@]1(C)CCc1ccoc12 |
| 31.1 | C=C1CCC[C@@H](C)[C@@]1(C)CCc1ccoc1 |
| 46.7 | C=C1C=CC[C@@H](C)[C@@]1(C)CCC1=CC(O)OC1=O (some centres undefined) [HYDROXYBUTENOLIDE] |

| Compound | IC50 [µM] |
| --- | --- |
| C[C@@H]1[C@@H]2C=C[C@@](C)(OO2)[C@@]1(C)CCC1=CC(O)OC1=O (some centres undefined) [LINGSHUIPEROXIDE] | 31.4 |
